The record followed here is US6642217B2, “Triterpenes having human antifungal and antiyeast activity” (Naturtek, LLC, priority 2000, dated 2003).

Series [1] concerns Trichophyton rubrum. Nature of the series: Summary of anti-fungal assays (direct addition, agar dilution, liquid culture). In kind it is cell-based. Conditions: stated in words (Tables 1a/1b, text to Table 5). On the procedure: (§1) This example summarizes the results of various other assays of the anti-fungal activity of betulin derivatives. Table 5 summarizes results using different assay methods—direct addition, agar dilution, and direct addition to liquid culture, as disclosed in the previous three Examples. In some cases, only one type of assay was done with a compound. In other cases, the compound was tested by multiple assays.

Series [2] relates to Epidermophyton floccosum. The series is described as above. In kind it is cell-based. The settings on record: stated in words (Tables 1a/1b, text to Table 5). On the procedure:
as §1

In another series the test system is Microsporum audouinii. The series is described as above. In kind it is cell-based. Conditions: stated in words (Tables 1a/1b, text to Table 5). On the procedure:
as §1

The test system of series [3] is Trichophyton mentagrophytes. The description is as above. In kind it is cell-based. The settings on record: stated in words (Tables 1a/1b, text to Table 5). On the procedure: as §1
In series [4] the test system is Microsporum audouinni. Nature of the series: Direct addition method, solid compound in Sabouraud dextrose agar. The settings on record: for Fungal growth: 4 mg/mL of agar, 12th day after inoculation. In kind it is cell-based, Microsporum audouinii. More on the design: key to Fungal growth: +++: Maximum Fungal Growth; ++: Moderate Fungal Growth; +: Minimum Fungal Growth; +/−: Very little Fungal Growth; −: No Fungal Growth. The procedure, abridged:
(§2)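 Fungal growth read at day 12; scored every 2nd day over 10-12 days at 25-28° C. Compound added as solid to molten Sabouraud dextrose agar (45° C.), final 4 mg/ml; agar slanted, then inoculated.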

Another series concerns P. ovale. Briefly: Summary of anti-fungal assays (direct addition, agar dilution, liquid culture). In kind it is cell-based, Pityrosporum ovale. The settings on record: stated in words (Tables 1a/1b, text to Table 5). On the procedure: as §1
(In agar dilution the substance is mixed into plates at graded concentrations.)

The test system of series [5] is Pityrosporum ovale. Nature of the series: Direct addition into the Pityrosporum agar. In kind it is cell-based. Also noted: key to Pityrosporum ovale growth: +++: Maximum Growth; ++: Moderate Growth; +: Minimum Growth; +/−: Very Little Growth; −: No Growth. The settings on record: for Growth inhibition of Pityrosporum ovale by the direct addition method: 4 mg/ml; for Pityrosporum ovale growth: 4 mg/ml in the agar, 18 hours after inoculation. On the procedure: Direct addition method. Sabouraud dextrose agar was prepared according to the manufacturer's instructions and 5.0 ml was dispensed in each 100×25 mm tube. The tubes were autoclaved. To each tube containing 5.0 ml of liquid agar at 45° C., 20 mg of solid test compound was added, to give a final concentration of 4 mg/ml. The agar was solidified in slants. The fungal cultures were then innoculated. […]

In another series the test system is Trichophyton tonsurans. Briefly: Summary of anti-fungal assays (direct addition, agar dilution, liquid culture). In kind it is cell-based. The settings on record: stated in words (Tables 1a/1b, text to Table 5). On the procedure:
as §1

Series [6] has as its system Trichophyton rubrum. Nature of the series: Direct addition method, solid compound in Sabouraud dextrose agar. Also noted: key: +++: Maximum Fungal Growth; ++: Moderate Fungal Growth; +: Minimum Fungal Growth; +/−: Very little Fungal Growth; −: No Fungal Growth. In kind it is cell-based. Conditions: 4 mg/mL of agar; 12th day after inoculation. The procedure, abridged:
as §2

The subject of series [7] is Epidermophyton floccosum. The series is described as above. In kind it is cell-based. More on the design: key: +++: Maximum Fungal Growth; ++: Moderate Fungal Growth; +: Minimum Fungal Growth; +/−: Very little Fungal Growth; −: No Fungal Growth. The settings on record: 4 mg/mL of agar; 12th day after inoculation. The method, boiled down:
as §2

The test system of series [8] is Microsporum canis. The series is described as above. The settings on record: 4 mg/mL of agar; 12th day after inoculation. In kind it is cell-based. Also noted: key: +++: Maximum Fungal Growth; ++: Moderate Fungal Growth; +: Minimum Fungal Growth; +/−: Very little Fungal Growth; −: No Fungal Growth. The method, boiled down: as §2
In series [9] the test system is Pityrosporum ovale. The series is described as above. In kind it is cell-based. More on the design: key: +++: Maximum Fungal Growth; ++: Moderate Fungal Growth; +: Minimum Fungal Growth; +/−: Very little Fungal Growth; −: No Fungal Growth. Conditions: 4 mg/mL of agar; 12th day after inoculation. The method, boiled down: as §2
The test system of series [10] is Epidermophyton floccosum. Nature of the series: Agar dilution method, growth on Sabouraud dextrose agar slants. More on the design: key to Fungal growth: +++: Maximum Fungal Growth; ++: Moderate Fungal Growth; +: Minimum Fungal Growth; +/−: Very little Fungal Growth; −: No Fungal Growth. In kind it is cell-based. The settings on record: 12th day after inoculation. The procedure, abridged: (§3)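 Compound, dissolved in DMSO, was mixed into molten Sabouraud dextrose agar at 45 °C and set as slants before fungal inoculation. Slants were incubated at 25-28 °C for 10-12 days, with growth scored every second day.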

In series [11] the test system is Trichophyton rubrum. Described as above. In kind it is cell-based. More on the design: key: +++: Maximum Fungal Growth; ++: Moderate Fungal Growth; +: Minimum Fungal Growth; +/−: Very little Fungal Growth; −: No Fungal Growth. The settings on record: 12th day after inoculation. The procedure, abridged:
as §3

Another series concerns Microsporum gypseum. Described as above. In kind it is cell-based. More on the design: key: +++: Maximum Fungal Growth; ++: Moderate Fungal Growth; +: Minimum Fungal Growth; +/−: Very little Fungal Growth; −: No Fungal Growth. The settings on record: 12th day after inoculation. The method, boiled down: as §3
Series [12] concerns Microsporum canis. The description is as above. In kind it is cell-based. More on the design: key: +++: Maximum Fungal Growth; ++: Moderate Fungal Growth; +: Minimum Fungal Growth; +/−: Very little Fungal Growth; −: No Fungal Growth. Conditions: 12th day after inoculation. The procedure, abridged:
as §3

Series [13] has as its system Pityrosporum ovale. Described as above. In kind it is cell-based. More on the design: key: +++: Maximum Fungal Growth; ++: Moderate Fungal Growth; +: Minimum Fungal Growth; +/−: Very little Fungal Growth; −: No Fungal Growth. The settings on record: 12th day after inoculation. The method, boiled down: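 SDA slants containing test compound (added from DMSO solution into 45 °C agar); inoculated with fungal culture; 25-28 °C, 10-12 d; growth read every 2nd day.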

The next series has as its system Trichophyton tonsuran. Described as above. In kind it is cell-based, Trichophyton tonsurans. Also noted: key: +++: Maximum Fungal Growth; ++: Moderate Fungal Growth; +: Minimum Fungal Growth; +/−: Very little Fungal Growth; −: No Fungal Growth. Conditions: 12th day after inoculation. The procedure, abridged: as §3
In series [14] the test system is Trichophyton mentagrophyte. The series is described as above. In kind it is cell-based, Trichophyton mentagrophytes. More on the design: key to Fungal growth: +++: Maximum Fungal Growth; ++: Moderate Fungal Growth; +: Minimum Fungal Growth; +/−: Very little Fungal Growth; −: No Fungal Growth. The settings on record: 12th day after inoculation. The method, boiled down: as §3

Series [15] deals with Microsporum audouinni. The series is described as above. In kind it is cell-based, Microsporum audouinii. More on the design: key: +++: Maximum Fungal Growth; ++: Moderate Fungal Growth; +: Minimum Fungal Growth; +/−: Very little Fungal Growth; −: No Fungal Growth. The settings on record: 12th day after inoculation. The method, boiled down: as §3

As for `C=C(C)C1CCC2(COC(=O)CC(C)(C)CC(=O)O)CCC3(C)C(CCC4C5(C)CCC(OC(=O)CC(C)(C)CC(=O)O)C(C)(C)C5CCC43C)C12` (stereo not drawn) [Betulin-3,28-di(3′,3′-dimethyl)glutarate], in the series on Trichophyton rubrum [1], the “Active against Trichophyton rubrum” value was “Trichophyton rubrum,”. Moreover, in the series with Epidermophyton floccosum [2], the “Active against Epidermophyton floccosum” value is recorded as “against Epidermophyton floccosum”. Further, the “Active against Microsporum audouinii” value in the series on Microsporum audouinii was “Microsporum audouinii,”. Further, the “Active against Trichophyton mentagrophytes” value in series [3] is “Trichophyton mentagrophytes,”.
Regarding `C=C(C)C1CCC2(COC(=O)CCCC(=O)O)CCC3(C)C(CCC4C5(C)CCC(O)C(C)(C)C5CCC43C)C12` (stereo not drawn) [Betulin-28-glutarate], the Fungal growth entry in the series on Microsporum audouinni [4] is reported as “+”; in the series with Trichophyton rubrum [6], “+”; with Epidermophyton floccosum [7], “−”; in the series on Microsporum canis [8] it was “+”; with Pityrosporum ovale [9] it was “−”. Moreover, in the series on P. ovale, the “Active against Pityrosporum ovale” value is “Pityrosporum ovale,”. The “Growth inhibition of Pityrosporum ovale by the direct addition method” value (“Growth inhibition of Pityrosporum ovale” below) in the series with Pityrosporum ovale [5] is given as “inhibited the growth”. In the series with Pityrosporum ovale [5], the Pityrosporum ovale growth entry is recorded as “+/−”. The “Active against Trichophyton rubrum” value in the series on Trichophyton rubrum [1] was “Trichophyton rubrum,”. Also, the “Active against Epidermophyton floccosum” value with Epidermophyton floccosum [2] (listed as betulin-28-glutarate) was “against Epidermophyton floccosum”. For the same molecule, in series [3], the “Active against Trichophyton mentagrophytes” value is on record as “Trichophyton mentagrophytes,”. In addition, the “Active against Trichophyton tonsurans” value with Trichophyton tonsurans is “Trichophyton tonsurans,”.
As to `C=C(C)[C@@H]1CCC2(CO)CC[C@@]3(C)C(CCC4[C@@]5(C)C=C(O)C(=O)C(C)(C)C5CC[C@]43C)C12` (stereo partly drawn), the melting point was 167 to 170 °C (dec.).
For the molecule `CC(C)C(N)C(=O)OC1CCC2(C)C(CCC3(C)C2CCC2C4C5OCC4(CCC5(C)C)CCC23C)C1(C)C` [Allobetulin-3-L-valine], the Fungal growth entry in the series on Microsporum audouinni [4] is listed as “−”; in the series on Trichophyton rubrum [6] it was “+”; in the series on Epidermophyton floccosum [7], “−”; with Microsporum canis [8], “+”; with Pityrosporum ovale [9], “−”. Moreover, the “best anti-fungal or anti-yeast activity by the direct addition method” value in the series with Microsporum audouinni [4] (against Microsporum audouinii) is recorded as “against Microsporum audouinii”. Also, the “Active against Pityrosporum ovale” value in the series with P. ovale is “Pityrosporum ovale”. Also, the “Growth inhibition of Pityrosporum ovale” value with Pityrosporum ovale [5] is “inhibited the growth”. The Pityrosporum ovale growth result in the series with Pityrosporum ovale [5] is reported as “+”. Moreover, the “Active against Microsporum audouinii” value with Microsporum audouinii was “Microsporum audouinii”.
On to `CC1(C)CCC23CC[C@@]4(C)C(CCC5[C@@]6(C)CC[C@H](O)C(C)(C)C6CC[C@]54C)C2C1OC3` (stereo partly drawn) [Allobetulin, oleanan-3β-ol-28,19-β-ether], for which the Fungal growth entry with Epidermophyton floccosum [10] (9 μg/ml) was “++”; in the series on Epidermophyton floccosum [10] (19 μg/ml), “+”; in the series on Epidermophyton floccosum [10] (38 μg/ml) it was “+”; in the series on Epidermophyton floccosum [10] (75 μg/ml), “−”; with Trichophyton rubrum [11] (9 μg/ml), “++”; in the series on Trichophyton rubrum [11] (19 μg/ml), “++”. In addition, the Fungal growth entry was “+” in the series with Trichophyton rubrum [11] (38 μg/ml); “−” in the series on Trichophyton rubrum [11] (75 μg/ml); “+++” in the series with Microsporum gypseum (9 μg/ml); “++” in the series with Microsporum gypseum (19 μg/ml); “++” in the series with Microsporum gypseum (38 μg/ml); “−” in the series with Microsporum gypseum (75 μg/ml). Also, the Fungal growth entry with Microsporum canis [12] (9 μg/ml) is given as “+++”; with Microsporum canis [12] (19 μg/ml), “++”; in the series on Microsporum canis [12] (38 μg/ml), “++”; in the series with Microsporum canis [12] (75 μg/ml) it was “−”; in the series on Pityrosporum ovale [13] (9 μg/ml) it was “+++”; in the series with Pityrosporum ovale [13] (19 μg/ml), “+++”. Besides, the Fungal growth entry is given as “++” in the series on Pityrosporum ovale [13] (38 μg/ml); “−” in the series with Pityrosporum ovale [13] (75 μg/ml); “+” in the series on Microsporum audouinni [4]; “+++” with Trichophyton tonsuran (9 μg/ml); “++” with Trichophyton tonsuran (19 μg/ml); “++” with Trichophyton tonsuran (38 μg/ml). Besides, the Fungal growth result with Trichophyton tonsuran (75 μg/ml) was “−”; in series [14] (9 μg/ml), “++”; in series [14] (19 μg/ml), “+”; in [14] (38 μg/ml), “+”; in series [14] (75 μg/ml), “−”; in the series on Microsporum audouinni [15] (9 μg/ml), “+/−”. Further, the Fungal growth result in the series on Microsporum audouinni [15] (19 μg/ml) is given as “−”; in the series with Microsporum audouinni [15] (38 μg/ml) it was “−”; with Microsporum audouinni [15] (75 μg/ml) it was “−”; in the series on Trichophyton rubrum [6], “+”; in the series with Epidermophyton floccosum [7], “−”; in the series with Microsporum canis [8] it was “++”. The Fungal growth entry in the series on Pityrosporum ovale [9] is listed as “−”. Moreover, in the series with P. ovale, the “Active against Pityrosporum ovale” value was “Pityrosporum ovale”. Moreover, in the series with Pityrosporum ovale [5], the “Growth inhibition of Pityrosporum ovale” value is “inhibited the growth”. Also, in the series with Pityrosporum ovale [5], the Pityrosporum ovale growth entry is recorded as “+/−”. The “Active against Microsporum audouinii” value in the series on Microsporum audouinii is “Microsporum audouinii”.
Consider `CC(=O)OC1CC[C@@]2(C)C(CC[C@]3(C)C2CCC2C4C5OC(=O)C4(CCC5(C)C)CC[C@@]23C)C1(C)C` (stereo partly drawn) [Allobetulinlactone-3-acetate, oleanan-28,19-β-lactone-3-acetate], for which the melting point was 312.5 to 315.4 °C (dec.).

Broadly, the melting point is the temperature, or range, at which the solid turns liquid.
